{
  "source": "patent US20100222289A1",
  "about": "“METHODS FOR DIAGNOSIS AND TREATMENT OF CHRONIC FATIGUE SYNDROME” (CFS Research LLC, priority 2007, published 2010)",
  "key": {"[1]": {"test_system": "Group A herpesvirus CFS (EBV, HCMV, HHV6)", "test": "Example 4: Energy Index Point Score (EIPS) in Group A herpesvirus CFS patients on antiviral nucleosides", "type": "in vivo, human", "source_text": "Background and Patient Population The international criteria for diagnosis of CFS was used. With strict confidentiality clinical files of CFS patients were identified by number only. A blinded code was maintained. Data were entered to the Axel computer system and analyzed anonymously. Patients with active EBV infection were identified by the presence of elevated serum ELISA antibodies to Epstein-Barr virus (EBV) IgM viral capsid antigen p18 peptide (Diasorin Inc., Stillwater, Minn.) and/or EBV, Early antigen (diffuse) 47 KD recombinant peptide (Diasorin, Stillwater, Minn.). Patients with active HCMV infection were identified by the presence of HCMV strain AD69 human fibroblast lysate, IgM and IgG ELISA and Copalis light-scatter, HCMV IgM p52 recombinant protein, UL44 and HCMV CM2, UL44 and part UL57 recombinant protein. Elevated IgM and IgG Human Herpesvirus 6 serum antibody titers ≧160 (LabCorp, Dublin, Ohio) were recorded. CFS patients had 24-Hr ECG Holter monitor recordings. When abnormal resting standard ECG and abnormal recurrent oscillating T-waves (flat, inverted) were present at baseline, radionuclide ventriculography by bicycle protocol stress studies were performed. The CFS patients reported here are termed Group A. They had negative IgM, IgG serum antibody titers to Borrelia burgdorferi, Western blot and ELISA; anti-streptolysin 0 titers <200 units; and negative serum IgM and IgG antibody titers to both Ehrlichia chaffeensis and Babesia microti (LabCorp).\nMeasurement of Degree of Fatigue (Physical Capacity) The Energy Index Point Score (EIPS) is a reliable validated metric assessing the degree of illness of CFS patients. With an EIPS scoring scale for reference on the wall in each examining room, the EIPS was determined by consensus of physician and patient. An EIPS of “0” is a bedridden patient. Patients were seen every 4-6 weeks and EIPS recorded. If an intercurrent illness was present EIPS determinations were delayed for 2 weeks. An EIPS of between 0 and 5 is associated with the presence of CFS. At an EIPS of between 6 and 10, the patient no longer meets criteria for diagnosis of CFS. A change in EIPS of 0.25 is small, a 0.5 change in EIPS is a medium change, and an EIPS change of ≧0.8 is a large effect size (p<0.05).\nValacyclovir and Famciclovir Administration to CFS patients with EBV infection Valacyclovir and famciclovir are pro-drugs well absorbed orally and, after reaching the circulation as acyclovir or penciclovir, respectively, inhibit EBV thymidine kinase efficiently. […]. Here, valacyclovir was the agent of first choice, but when diarrheas to valacyclovir developed, famciclovir was substituted. […]. If the patient weighed over 79.5 Kg, 1500 mg valacyclovir was given at each dose. Valacyclovir is excreted by the kidney by both glomerular filtration and tubular secretion. Valacyclovir renal calculi may result, and patients were advised to drink at least 1500 ml water daily. […]. Valacyclovir, once absorbed orally, is acyclovir in serum.\nCFS patients were given valganciclovir. Cautiously beginning, 450 mg daily was administered every morning after a meal for three days, and then increasing dosage to two doses of 450 mg, every morning for three days. They were then given two doses of 450 mg valganciclovir every morning followed by one 12 hours later as a continuing dosage. […] If the patient weighed over 90.0 Kg, 900 mg valganciclovir every 12 hours was given. Dosage was evaluated every 2-6 weeks for ongoing tolerance with normal values of hemograms, platelets and amino transferases and creatinines."}, "[2]": {"design": "species or system human", "conditions": "in vivo", "protocol": "Toxicity of Antiviral Nucleosides Patients were seen every 4 to 6 weeks, EIPS was recorded and complete blood count, aminotransferases, creatinine and urinalyses were done. Also recorded were abnormalities in white blood cells and platelet counts, aminotransferases, weight gain or loss, whether famciclovir was substituted for valacyclovir, dosage change for valganciclovir, valacyclovir, or famciclovir, and whether any of the following occurred: participation in blinded-placebo-controlled study, hospitalization, surgery, recovery, a cessation of medicines by patient choice, cessation of medicines by physician choice, relapse with worsening EIPS and returned for care."}, "HCMV [3]": {"test_system": "HCMV", "conditions": "cited from earlier work"}, "HHV6 [4]": {"test_system": "HHV6", "conditions": "cited from earlier work"}, "HCMV [5]": {"test_system": "HCMV", "conditions": "versus HCMV; read-out: 50% inhibitory concentration; cited from earlier work"}, "[6]": {"conditions": "high dose repetitive human studies; cited from earlier work"}, "HCMV-EBV subset CFS": {"test_system": "HCMV-EBV subset CFS", "test": "Example 1: subset directed antiviral therapy of HCMV-EBV CFS patients", "type": "in vivo, human", "conditions": "for clinical outcome: 10 CFS patients, treated according to subset for mean 2.6±0.4 years; for side effects: mean 2.6±0.4 years treatment", "protocol": "Ten patients with chronic fatigue syndrome (CFS) of 1.3-2.6 years duration had elevated serum antibody titers to cytomegalovirus (HCMV), and 9 of these patients also had elevated serum antibody titers to Epstein-Barr virus (EBV). They were classified: HCMV-EBV subset (nine patients) and HCMV subset (one patient) CFS. We determined whether subset classification is required for successful antiviral therapy of CFS.\nCFS patients with elevated serum antibody titers to HCMV and EBV were treated with valganciclovir (HCMV) and valacyclovir (EBV) according to subset classification for a mean of 2.6±0.4 years. […] Five patients continue no antiviral drug, and five patients require continuing antiviral suppressive therapy. […] Subset directed antiviral therapy leads to sustained recovery in CFS patients."}, "EBV CFS subset": {"test_system": "EBV CFS subset", "test": "Example 3: valacyclovir in EBV subset CFS, placebo-controlled trial and 36 month follow-up", "type": "in vivo, human", "protocol": "We used subset classification of Epstein-Barr virus (EBV) in chronic fatigue (CFS). We (1) performed (Group 1) a blinded-random placebo-controlled trial of valacyclovir in EBV CFS subset, and (2) followed (Group 2) this EBV subset for thirty-six months. Patients were given valacyclovir 14.3 mg per kg every 6 hours. The validated Energy Index point score (EI) assessing physical functional capacity, Holter monitor, multigated (radionuclide) MUGA rest/stress ventriculographic examination, EBV serum IgM viral capsid antibodies (VCA), and EBV Early Antigen diffuse, (EA) were evaluated."}, "EBV [7]": {"test_system": "EBV", "conditions": "cited from earlier work"}, "[8]": {"conditions": "cited from earlier work"}, "EBV [9]": {"test_system": "EBV", "test": "simultaneous tests, activity versus EBV compared to HCMV", "type": "cell-based, Epstein-Barr virus", "source_text": "Therefore, valganciclovir was employed in CFS associated with HCMV or HHV6. Valganciclovir is efficiently absorbed as ganciclovir. It […] to human bone marrow progenitor cells and lymphocyte blastogenesis at this dosage. […] Food increases the bioavailability of both valacyclovir and valganciclovir."}, "HCMV [10]": {"test_system": "HCMV", "conditions": "cited from earlier work", "remark": "listed apart in the source"}, "HHV6 [11]": {"test_system": "HHV6", "conditions": "cited from earlier work", "remark": "listed apart in the source"}, "[12]": {"test_system": "human bone marrow progenitor cells and lymphocyte blastogenesis", "conditions": "at this dosage; cited from earlier work"}, "[13]": {"conditions": "EBV single-virus subset (31 pts)"}, "[14]": {"conditions": "Group 2, thirty-six month follow-up"}, "[15]": {"conditions": "1 gm doses every 6 hours, 70 kg patients"}},
  "data": [
    {"smiles": "CC(=O)OCC(CCn1cnc2cnc(N)nc21)COC(C)=O", "note": "[famciclovir]", "values": [
      {"measurement": "EIPS Change", "setting": "[1]; [13]", "value": "+2"},
      {"measurement": "toxicity", "setting": "[2]", "value": "no toxicity"},
      {"measurement": "effective therapeutic agent for HCMV", "setting": "HCMV [3]", "value": "not effective therapeutic agents"},
      {"measurement": "effective therapeutic agent for HHV6", "setting": "HHV6 [4]", "value": "not effective therapeutic agents"}
    ]},
    {"smiles": "Nc1nc(O)c2ncn(COC(CO)CO)c2n1", "note": "[ganciclovir]", "values": [
      {"measurement": "IC50", "setting": "HCMV [5]", "value": "530 ± 40", "unit": "nM"}
    ]},
    {"smiles": "CC(C)Nc1nc2cc(Cl)c(Cl)cc2n1[C@H]1O[C@@H](CO)[C@H](O)[C@@H]1O", "note": "[maribavir, 1H-β-L-ribofuranoside-2-isopropylamino-5,6-dichlorobenzimidazole]", "values": [
      {"measurement": "IC50", "setting": "HCMV [5]", "value": "120 ± 10", "unit": "nM"},
      {"measurement": "side effects", "setting": "[6]", "value": "changes in taste and headache"}
    ]},
    {"smiles": "CC(C)[C@H](N)C(=O)OCCOCn1cnc2c(=O)[nH]c(N)nc21", "note": "[valacyclovir]", "values": [
      {"measurement": "clinical outcome", "setting": "HCMV-EBV subset CFS", "value": "returned to health and remain well"},
      {"measurement": "side effects", "setting": "HCMV-EBV subset CFS", "value": "No significant side effects"},
      {"measurement": "increase in energy expenditure corresponding to EI change", "setting": "EBV CFS subset; Group 1, after six months", "value": 122, "unit": "kcal/day"},
      {"measurement": "increase in mean least square EI Point Score", "setting": "EBV CFS subset; Group 1, after six months, 14.3 mg per kg every 6 hours", "value": "+1.12 units"},
      {"measurement": "EI Point Scores", "setting": "EBV CFS subset; [14]", "value": "increased progressively"},
      {"measurement": "abnormal cardiac wall motion", "setting": "EBV CFS subset; [14]", "value": "improved"},
      {"measurement": "serum antibody titers to EBV VCA IgM", "setting": "EBV CFS subset; [14]", "value": "decreased"},
      {"measurement": "sinus tachycardias", "setting": "EBV CFS subset; [14]", "value": "decreased"},
      {"measurement": "EIPS Change", "setting": "[1]; [13]", "value": "+2"},
      {"measurement": "toxicity", "setting": "[2]", "value": "no toxicity"},
      {"measurement": "minimum inhibitor concentration (MIC)", "setting": "EBV [7]", "value": "1.5 to 3.0", "unit": "µg/mL"},
      {"measurement": "peak acyclovir levels", "setting": "[8]; [15]", "value": "7.9 to 21", "unit": "µg/mL"},
      {"measurement": "time of peak acyclovir levels", "setting": "[8]; [15]", "value": "90 to 120", "unit": "min"},
      {"measurement": "effective therapeutic agent for HCMV", "setting": "HCMV [3]", "value": "not an effective therapeutic antiviral agent"},
      {"measurement": "effective therapeutic agent for HHV6", "setting": "HHV6 [4]", "value": "not an effective therapeutic antiviral agent"}
    ]},
    {"smiles": "CC(C)[C@H](N)C(=O)OCC(CO)OCn1cnc2c(=O)nc(N)[nH]c21", "note": "(some centres unmarked) [valganciclovir]", "values": [
      {"measurement": "activity versus EBV as compared to HCMV", "setting": "EBV [9]", "value": "one-tenth as active"},
      {"measurement": "clinical outcome", "setting": "HCMV-EBV subset CFS", "value": "returned to health and remain well"},
      {"measurement": "side effects", "setting": "HCMV-EBV subset CFS", "value": "No significant side effects"},
      {"measurement": "EIPS Change", "setting": "[1]; EBV/HCMV subset (38 pts)", "value": "+1.8"},
      {"measurement": "EIPS Change", "setting": "[1]; EBV/HHV6 subset (14 pts)", "value": "+2.0"},
      {"measurement": "EIPS Change", "setting": "[1]; HCMV single-virus subset (15 pts)", "value": "+1.5"},
      {"measurement": "EIPS Change", "setting": "[1]; HCMV/HHV6 subset (7 pts)", "value": "+1.7"},
      {"measurement": "EIPS Change", "setting": "[1]; HHV6 single-virus subset (2 pts)", "value": "+2.7"},
      {"measurement": "aminotransferases", "setting": "[2]", "value": "increases in aminotransferases were observed"},
      {"measurement": "changes in hemoglobin or platelet levels", "setting": "[2]", "value": "no changes"},
      {"measurement": "MIC", "setting": "HCMV [10]", "value": "0.15 to 0.3", "unit": "µg/mL"},
      {"measurement": "MIC", "setting": "HHV6 [11]", "value": "0.15 to 0.3", "unit": "µg/mL"},
      {"measurement": "average peak concentrations (Cmax)", "setting": "[8]; after 0.5-1.0 gm doses", "value": 6100, "unit": "ng/mL"},
      {"measurement": "effective therapeutic agent for HCMV", "setting": "HCMV [3]", "value": "not effective therapeutic agents"},
      {"measurement": "effective therapeutic agent for HHV6", "setting": "HHV6 [4]", "value": "not effective therapeutic agents"},
      {"measurement": "effect on human bone marrow progenitor cells and lymphocyte blastogenesis", "setting": "[12]", "value": "inhibitory"}
    ]}
  ]
}
